From patent US11478486B2, “Association of actives for treating prostate cancer” (priority 2017, dated 2022)

Columns and labels:
Assay type in all cases: cell-based, human
[1] = tested on: AR-V7; assay: western blot of AR and AR-V7 expression in 22Rv1 cells; details: 22Rv1, 72 hours; abiraterone 7.5 μM, enzalutamide 7.5 μM, SB202190 (504)
Procedure: Western blot analysis was performed, detecting the wild-type form of AR and the AR-V7 form as well (FIG. 7). In this way the inventors tested the involvement of the p38 inhibitor in abiraterone and enzalutamide resistance, the AR-V7.

[2] = tested on: AR-V7; assay: CELIGO microscope observation of AR-V7 expression; details: 22Rv1 cells, 72 hours; enzalutamide 30.0 μM, SB202190 5.0 μM, LY2228820 2.5 μM; control 30.0%
Procedure: The expression of AR-V7 was observed by the CELIGO microscope in 22Rv1 cells after 72 hours of culture.

[3] = tested on: p38 (MAPK14); assay: p38 activation, western blot with anti-phospho-p38 antibody; details: 22Rv1 and LNCaP prostate cancer cells, 24 hours
Procedure: FIG. 1: Abiraterone induces p38 activation. Prostate cancer cells LNCaP (Androgen Receptor expressing cells) were treated with abiraterone (30 μM). Prostate cancer cells 22Rv1 (Androgen Receptor and AR-V7 expressing cells) were treated with 0.1, 1.0, 10.0 and 30.0 μM abiraterone during 24 hours. Protein were extracted and subjected to western blot analysis using anti-phospho-p38, anti-p38 and anti-tubulin antibodies. (Example 1)
[…]. A: LNCaP human prostate cells (Androgen Receptor expressing cells) were treated by enzalutamide (35.0 μM) during 24 h00. Phosphorylation p38 was assessed. Tubuline and non-phosphorylated proteins were stained as a loading control. B: same experiment with the Androgen Receptor and AR-V7 expressing 22Rv1 human prostate cancer cells (Example 1).

| Compound | AR-V7 expression [1] | % of cells with ARv7 [2] [%] | activation of MAPK p38 (phosphorylated form of p38) [3] |
| --- | --- | --- | --- |
| Oc1ccc(-c2nc(-c3ccncc3)c(-c3ccc(F)cc3)[nH]2)cc1 [SB202190] | inhibits AR-V7 expression | 28.0 |  |
| CNC(=O)c1ccc(N2C(=S)N(c3ccc(C#N)c(C(F)(F)F)c3)C(=O)C2(C)C)cc1F [enzalutamide] |  |  | activates the MAPK p38 |
| CC(C)(C)Cn1c(N)nc2ccc(-c3[nH]c(C(C)(C)C)nc3-c3ccc(F)cc3)nc21 [LY2228820] |  | 34.0 |  |
